A short description of this data set: Double amide coupling of bis-quinoline diacid with diamine (bis-indole diamine 5, or 1,5-pentanediamine for the precursor of 17); TCFH (4 equiv), N-methylimidazole (8 equiv); diamine (ca. 1.1-1.2 equiv, 6 mM in DMF) added at 20 uL/min to the activated diacid; intermolecular amide first, then intramolecular amide closure. Particulars: the molecule shown is the open-chain precursor, 2.0 mM.

From PMC8162405 come the findings set out here.

`CC(C)(C)OC(=O)N(CC(=O)Nc1ccc2ncc(C(=O)O)cc2c1)CC(=O)Nc1ccc2ncc(C(=O)Nc3ccc4[nH]cc(Cc5c[nH]c6ccc(N)cc56)c4c3)cc2c1` [13a1 (from 12a1 + 5)]: the ring closure, isolated yield (30-membered ring) was determined as 23%.

Take `Nc1ccc2[nH]cc(Cc3c[nH]c4ccc(NC(=O)c5cnc6cc(NC(=O)CCCCCC(=O)Nc7ccc8cc(C(=O)O)cnc8c7)ccc6c5)cc34)c2c1` [13b3 (from 12b3 + 5)]: the ring closure, isolated yield (34-membered ring) is 20%.

Regarding `Nc1ccc2[nH]cc(Cc3c[nH]c4ccc(NC(=O)c5cnc6ccc(NC(=O)CCCCC(=O)Nc7ccc8ncc(C(=O)O)cc8c7)cc6c5)cc34)c2c1` [13a2 (from 12a2 + 5)], the ring closure, isolated yield (31-membered ring) turned out to be 21%.

On to `NCCCCCNC(=O)c1cnc2ccc(NC(=O)CCCCC(=O)Nc3ccc4ncc(C(=O)O)cc4c3)cc2c1` [precursor of 17 (from 12a2 + 1,5-pentanediamine)], for which the ring closure, isolated yield (27-membered ring) stood at 15%.

Consider `Nc1ccc2[nH]cc(Cc3c[nH]c4ccc(NC(=O)c5cnc6cc(NC(=O)CCCCC(=O)Nc7ccc8cc(C(=O)O)cnc8c7)ccc6c5)cc34)c2c1` [13b2 (from 12b2 + 5)], for which the ring closure, isolated yield (33-membered ring) was found to be 21%.

Regarding `Nc1ccc2[nH]cc(Cc3c[nH]c4ccc(NC(=O)c5cnc6ccc(NC(=O)CCCCCCC(=O)Nc7ccc8ncc(C(=O)O)cc8c7)cc6c5)cc34)c2c1` [13a4 (from 12a4 + 5)], the ring closure, isolated yield (33-membered ring) is 21%.

`Nc1ccc2[nH]cc(Cc3c[nH]c4ccc(NC(=O)c5cnc6cc(NC(=O)CCCCCCCC(=O)Nc7ccc8cc(C(=O)O)cnc8c7)ccc6c5)cc34)c2c1` [13b5 (from 12b5 + 5)]: the ring closure, isolated yield (36-membered ring) was found to be 23%.

On to `CC(C)(C)OC(=O)N(CCC(=O)Nc1ccc2cc(C(=O)O)cnc2c1)CCC(=O)Nc1ccc2cc(C(=O)Nc3ccc4[nH]cc(Cc5c[nH]c6ccc(N)cc56)c4c3)cnc2c1` [13b1 (from 12b1 + 5)], for which the ring closure, isolated yield (34-membered ring) is 21%.

For `Nc1ccc2[nH]cc(Cc3c[nH]c4ccc(NC(=O)c5cnc6cc(NC(=O)CCCCCCC(=O)Nc7ccc8cc(C(=O)O)cnc8c7)ccc6c5)cc34)c2c1` [13b4 (from 12b4 + 5)], under “35-membered ring”, the ring closure, isolated yield turned out to be 27%.

Take `Nc1ccc2[nH]cc(Cc3c[nH]c4ccc(NC(=O)c5cnc6ccc(NC(=O)CCCCCC(=O)Nc7ccc8ncc(C(=O)O)cc8c7)cc6c5)cc34)c2c1` [13a3 (from 12a3 + 5)]: the ring closure, isolated yield (32-membered ring) is 20%.
